As a reminder, the inhibition is the drop in the measured response relative to a control, in per cent.

The source made the active and inactive calls. The rule behind the calls is not given here.

For one data set, the system named is Human immunodeficiency virus 1. The data set is described as follows: Antiviral activity against HIV1 3B infected in human CEM-SS cells assessed as inhibition of virus-induced cytopathic effect at 10 uM after 6 days by MTS assay. Format: functional. The following applies: Human immunodeficiency virus 1, 3B, 144 h. (In general: Cytopathic effects are the visible damage that an infection or toxin causes in cultured cells.)
In the case of `Cc1cn([C@H]2C[C@H](O)[C@](CO)(n3cc(COc4ccc5ccccc5c4)nn3)O2)c(=O)[nH]c1=O`, the inhibition at 10 µM was determined as 0%.

For `COc1ccc2c(-c3cn([C@]4(CO)O[C@@H](n5cc(C)c(=O)[nH]c5=O)C[C@@H]4O)nn3)cccc2c1`, the inhibition at 10 µM came out at 0%.

In the case of `Cc1cn([C@H]2C[C@H](O)[C@](CO)(n3cc(-c4ccc(Oc5ccccc5)cc4)nn3)O2)c(=O)[nH]c1=O`, the inhibition at 10 µM was 1%.

With `Cc1cn([C@H]2C[C@H](O)[C@](CO)(n3cc(-c4ccsc4)nn3)O2)c(=O)[nH]c1=O`, the inhibition at 10 µM was found to be 19%.

Turning to `CC(=O)Nc1ccc(-c2cn([C@]3(CO)O[C@@H](n4cc(C)c(=O)[nH]c4=O)C[C@@H]3O)nn2)cc1`, the inhibition at 10 µM was 0%.

As to `Cc1cn([C@H]2C[C@H](O)[C@](CO)(n3cc(C4CCCC4)nn3)O2)c(=O)[nH]c1=O`, the inhibition at 10 µM was 5%.

`Cc1cn([C@H]2C[C@H](O)[C@](CO)(n3cc(C4CC4)nn3)O2)c(=O)[nH]c1=O`: the inhibition at 10 µM was 0%.

With `Cc1cn([C@H]2C[C@H](O)[C@](CO)(n3cc(COc4ccccc4)nn3)O2)c(=O)[nH]c1=O`, the inhibition at 10 µM was 0%.

On to `Cc1cn([C@H]2C[C@H](O)[C@](CO)(n3cc(CO)nn3)O2)c(=O)[nH]c1=O`, for which the inhibition at 10 µM came out at 2%.

In the case of `Cc1cn([C@H]2C[C@H](O)[C@](CO)(n3cc(-c4ccc(Br)cc4)nn3)O2)c(=O)[nH]c1=O`, the inhibition at 10 µM was found to be 60%.

In the case of `Cc1cn([C@H]2C[C@H](O)[C@](CO)(n3cc(-c4cc5ccccc5c5ccccc45)nn3)O2)c(=O)[nH]c1=O`, the inhibition at 10 µM came out at 0%.

Take `Cc1cn([C@H]2C[C@H](O)[C@](CO)(n3cc(CON4C(=O)c5ccccc5C4=O)nn3)O2)c(=O)[nH]c1=O`: the inhibition at 10 µM is 1%.

The subject of a further data set is Influenza A virus. The data set is described as follows: Antiviral activity against Influenza A/WSN/33 virus infected in human A549 cells assessed as inhibition of virus-induced cytopathic effect at 10 uM after 5 days by neutral red assay. Particulars: A/WSN/1933(H1N1), A549, 120 h. Format: functional.
As for `Cc1cn([C@H]2C[C@H](O)[C@](CO)(n3cc(COc4ccc5ccccc5c4)nn3)O2)c(=O)[nH]c1=O`, the inhibition at 10 µM came to 16%.

Turning to `COc1ccc2c(-c3cn([C@]4(CO)O[C@@H](n5cc(C)c(=O)[nH]c5=O)C[C@@H]4O)nn3)cccc2c1`, the inhibition at 10 µM was 5.3%.

Regarding `Cc1cn([C@H]2C[C@H](O)[C@](CO)(n3cc(-c4ccc(Oc5ccccc5)cc4)nn3)O2)c(=O)[nH]c1=O`, the inhibition at 10 µM was determined as 48%.

Regarding `Cc1cn([C@H]2C[C@H](O)[C@](CO)(n3cc(-c4ccsc4)nn3)O2)c(=O)[nH]c1=O`, the inhibition at 10 µM is 0%.

Consider `CC(=O)Nc1ccc(-c2cn([C@]3(CO)O[C@@H](n4cc(C)c(=O)[nH]c4=O)C[C@@H]3O)nn2)cc1`, for which the inhibition at 10 µM came out at 54%.

In the case of `Cc1cn([C@H]2C[C@H](O)[C@](CO)(n3cc(C4CCCC4)nn3)O2)c(=O)[nH]c1=O`, the inhibition at 10 µM was 3.1%.

Regarding `Cc1cn([C@H]2C[C@H](O)[C@](CO)(n3cc(C4CC4)nn3)O2)c(=O)[nH]c1=O`, the inhibition at 10 µM was 0%.

Consider `Cc1cn([C@H]2C[C@H](O)[C@](CO)(n3cc(COc4ccccc4)nn3)O2)c(=O)[nH]c1=O`, for which the inhibition at 10 µM is 10%.

For `Cc1cn([C@H]2C[C@H](O)[C@](CO)(n3cc(CO)nn3)O2)c(=O)[nH]c1=O`, the inhibition at 10 µM was found to be 0%.

`Cc1cn([C@H]2C[C@H](O)[C@](CO)(n3cc(-c4ccc(Br)cc4)nn3)O2)c(=O)[nH]c1=O`: the inhibition at 10 µM came out at 18%.

Take `Cc1cn([C@H]2C[C@H](O)[C@](CO)(n3cc(-c4cc5ccccc5c5ccccc45)nn3)O2)c(=O)[nH]c1=O`: the inhibition at 10 µM was 0%.

As to `Cc1cn([C@H]2C[C@H](O)[C@](CO)(n3cc(CON4C(=O)c5ccccc5C4=O)nn3)O2)c(=O)[nH]c1=O`, the inhibition at 10 µM came to 3.7%.

Test system in a further data set: not listed separately
Nature of the data set: Cytotoxicity against human CEM-SS cells assessed as cell viability at 10 uM after 6 days by MTS assay. In kind it is cell-based. The following applies: read-out: Activity. On the technique in general: Formazan colour is commonly taken as a measure of viable cells.
Regarding `Cc1cn([C@H]2C[C@H](O)[C@](CO)(n3cc(COc4ccc5ccccc5c4)nn3)O2)c(=O)[nH]c1=O`, the viability at 144 h, 10 µM worked out at 93%.

As to `COc1ccc2c(-c3cn([C@]4(CO)O[C@@H](n5cc(C)c(=O)[nH]c5=O)C[C@@H]4O)nn3)cccc2c1`, the viability at 144 h, 10 µM worked out at 95%.

For `Cc1cn([C@H]2C[C@H](O)[C@](CO)(n3cc(-c4ccc(Oc5ccccc5)cc4)nn3)O2)c(=O)[nH]c1=O`, the viability at 144 h, 10 µM was 95%.

For `Cc1cn([C@H]2C[C@H](O)[C@](CO)(n3cc(-c4ccsc4)nn3)O2)c(=O)[nH]c1=O`, the viability at 144 h, 10 µM turned out to be 100%.

Consider `CC(=O)Nc1ccc(-c2cn([C@]3(CO)O[C@@H](n4cc(C)c(=O)[nH]c4=O)C[C@@H]3O)nn2)cc1`, for which the viability at 144 h, 10 µM was found to be 98%.

As to `Cc1cn([C@H]2C[C@H](O)[C@](CO)(n3cc(C4CCCC4)nn3)O2)c(=O)[nH]c1=O`, the viability at 144 h, 10 µM turned out to be 100%.

On to `Cc1cn([C@H]2C[C@H](O)[C@](CO)(n3cc(C4CC4)nn3)O2)c(=O)[nH]c1=O`, for which the viability at 144 h, 10 µM is 99%.

Consider `Cc1cn([C@H]2C[C@H](O)[C@](CO)(n3cc(COc4ccccc4)nn3)O2)c(=O)[nH]c1=O`, for which the viability at 144 h, 10 µM came to 97%.

In the case of `Cc1cn([C@H]2C[C@H](O)[C@](CO)(n3cc(CO)nn3)O2)c(=O)[nH]c1=O`, the viability at 144 h, 10 µM came out at 100%.

For the compound `Cc1cn([C@H]2C[C@H](O)[C@](CO)(n3cc(-c4ccc(Br)cc4)nn3)O2)c(=O)[nH]c1=O`, the viability at 144 h, 10 µM came out at 100%.

Take `Cc1cn([C@H]2C[C@H](O)[C@](CO)(n3cc(-c4cc5ccccc5c5ccccc45)nn3)O2)c(=O)[nH]c1=O`: the viability at 144 h, 10 µM was found to be 86%.

As to `Cc1cn([C@H]2C[C@H](O)[C@](CO)(n3cc(CON4C(=O)c5ccccc5C4=O)nn3)O2)c(=O)[nH]c1=O`, the viability at 144 h, 10 µM amounted to 99%.

Another data set has as its system West Nile virus. The data set is described as follows: Antiviral activity against West Nile virus infected in baby hamster BHK-WII RepRen1B cells assessed as inhibition of viral replication at 10 uM after 3 days by luciferase assay.
Conditions: not given
Format: functional, organism-based.
Take `Cc1cn([C@H]2C[C@H](O)[C@](CO)(n3cc(COc4ccc5ccccc5c4)nn3)O2)c(=O)[nH]c1=O`: the inhibition result is “inactive”.

With `COc1ccc2c(-c3cn([C@]4(CO)O[C@@H](n5cc(C)c(=O)[nH]c5=O)C[C@@H]4O)nn3)cccc2c1`, the inhibition entry is “inactive”.

For `Cc1cn([C@H]2C[C@H](O)[C@](CO)(n3cc(-c4ccc(Oc5ccccc5)cc4)nn3)O2)c(=O)[nH]c1=O`, the inhibition result is “inactive”.

In the case of `Cc1cn([C@H]2C[C@H](O)[C@](CO)(n3cc(-c4ccsc4)nn3)O2)c(=O)[nH]c1=O`, the inhibition entry is “inactive”.

As to `CC(=O)Nc1ccc(-c2cn([C@]3(CO)O[C@@H](n4cc(C)c(=O)[nH]c4=O)C[C@@H]3O)nn2)cc1`, the inhibition result was “inactive”.

Consider `Cc1cn([C@H]2C[C@H](O)[C@](CO)(n3cc(C4CCCC4)nn3)O2)c(=O)[nH]c1=O`, for which the inhibition entry was “inactive”.

For `Cc1cn([C@H]2C[C@H](O)[C@](CO)(n3cc(C4CC4)nn3)O2)c(=O)[nH]c1=O`, the inhibition result was “inactive”.

For `Cc1cn([C@H]2C[C@H](O)[C@](CO)(n3cc(COc4ccccc4)nn3)O2)c(=O)[nH]c1=O`, the inhibition entry was “inactive”.

Consider `Cc1cn([C@H]2C[C@H](O)[C@](CO)(n3cc(CO)nn3)O2)c(=O)[nH]c1=O`, for which the inhibition entry is “inactive”.

For the compound `Cc1cn([C@H]2C[C@H](O)[C@](CO)(n3cc(-c4ccc(Br)cc4)nn3)O2)c(=O)[nH]c1=O`, the inhibition result is “inactive”.

`Cc1cn([C@H]2C[C@H](O)[C@](CO)(n3cc(-c4cc5ccccc5c5ccccc45)nn3)O2)c(=O)[nH]c1=O`: the inhibition entry was “inactive”.

On to `Cc1cn([C@H]2C[C@H](O)[C@](CO)(n3cc(CON4C(=O)c5ccccc5C4=O)nn3)O2)c(=O)[nH]c1=O`, for which the inhibition entry was “inactive”.

For the next data set, the system named is Influenza A virus. Nature of the data set: Antiviral activity against Influenza A/WSN/33 virus infected in MDCK cells assessed as inhibition of virus-induced cytopathic effect at 10 uM after 5 days by neutral red assay. The following applies: A/WSN/1933(H1N1), 120 h. Format: functional.
Take `Cc1cn([C@H]2C[C@H](O)[C@](CO)(n3cc(COc4ccc5ccccc5c4)nn3)O2)c(=O)[nH]c1=O`: the inhibition at 10 µM turned out to be 1%.

As to `Cc1cn([C@H]2C[C@H](O)[C@](CO)(n3cc(-c4ccc(Oc5ccccc5)cc4)nn3)O2)c(=O)[nH]c1=O`, the inhibition at 10 µM was 1%.

Regarding `CC(=O)Nc1ccc(-c2cn([C@]3(CO)O[C@@H](n4cc(C)c(=O)[nH]c4=O)C[C@@H]3O)nn2)cc1`, the inhibition at 10 µM was determined as 3%.

`Cc1cn([C@H]2C[C@H](O)[C@](CO)(n3cc(-c4ccc(Br)cc4)nn3)O2)c(=O)[nH]c1=O`: the inhibition at 10 µM amounted to 4%.

Another data set has as its system Hepatitis C virus. The data set is described as follows: Antiviral activity against HCV1b infected in human HuH-7 cells assessed as inhibition of viral replication at 10 uM after 3 days by luciferase assay. In kind it is functional, organism-based. The following applies: Hepacivirus hominis, genotype 1b.
Take `Cc1cn([C@H]2C[C@H](O)[C@](CO)(n3cc(COc4ccc5ccccc5c4)nn3)O2)c(=O)[nH]c1=O`: the inhibition entry is “inactive”.

Turning to `COc1ccc2c(-c3cn([C@]4(CO)O[C@@H](n5cc(C)c(=O)[nH]c5=O)C[C@@H]4O)nn3)cccc2c1`, the inhibition entry is “inactive”.

In the case of `Cc1cn([C@H]2C[C@H](O)[C@](CO)(n3cc(-c4ccc(Oc5ccccc5)cc4)nn3)O2)c(=O)[nH]c1=O`, the inhibition result is “inactive”.

For `Cc1cn([C@H]2C[C@H](O)[C@](CO)(n3cc(-c4ccsc4)nn3)O2)c(=O)[nH]c1=O`, the inhibition result was “inactive”.

As for `CC(=O)Nc1ccc(-c2cn([C@]3(CO)O[C@@H](n4cc(C)c(=O)[nH]c4=O)C[C@@H]3O)nn2)cc1`, the inhibition result was “inactive”.

With `Cc1cn([C@H]2C[C@H](O)[C@](CO)(n3cc(C4CCCC4)nn3)O2)c(=O)[nH]c1=O`, the inhibition result is “inactive”.

`Cc1cn([C@H]2C[C@H](O)[C@](CO)(n3cc(C4CC4)nn3)O2)c(=O)[nH]c1=O`: the inhibition entry was “inactive”.

Regarding `Cc1cn([C@H]2C[C@H](O)[C@](CO)(n3cc(COc4ccccc4)nn3)O2)c(=O)[nH]c1=O`, the inhibition result was “inactive”.

As to `Cc1cn([C@H]2C[C@H](O)[C@](CO)(n3cc(CO)nn3)O2)c(=O)[nH]c1=O`, the inhibition result was “inactive”.

Regarding `Cc1cn([C@H]2C[C@H](O)[C@](CO)(n3cc(-c4ccc(Br)cc4)nn3)O2)c(=O)[nH]c1=O`, the inhibition entry was “inactive”.

On to `Cc1cn([C@H]2C[C@H](O)[C@](CO)(n3cc(-c4cc5ccccc5c5ccccc45)nn3)O2)c(=O)[nH]c1=O`, for which the inhibition result was “inactive”.

`Cc1cn([C@H]2C[C@H](O)[C@](CO)(n3cc(CON4C(=O)c5ccccc5C4=O)nn3)O2)c(=O)[nH]c1=O`: the inhibition result was “inactive”.

The values above are taken from ChEMBL document CHEMBL3132855, “Synthesis and antiviral evaluation of 4-(1,2,3-triazol-1-yl)thymidines” (Medchemcomm, 2014).
